Measurements reported in patent US9260397B2, “Salts comprising aryl-alkyl-substituted imidazolium and triazolium cations and the use thereof” (TECHNISCHE UNIVERSITAET DRESDEN, priority 2008, dated 2016).

Key:
[1] = Thermal stability (decomposition point); assay type: physicochemical
[2] = Solubility in ether or THF; assay type: physicochemical
Protocol: To 80 mg 1-mesityl-3-tetradecyl imidazolium tetrafluoroborate (Example 97) 4 ml diethylether or 2 ml tetrahydrofuran are added.

| Compound | Decomposition point [1] [°C] | solubility in tetrahydrofuran ([2]; 80 mg in 2 ml tetrahydrofuran) | solubility in diethylether ([2]; 80 mg in 4 ml diethylether) |
| --- | --- | --- | --- |
| 1-mesityl-3-propylimidazolium bis(trifluoromethylsulfone)imide [Example 69] | 440 |  |  |
| CCCCCCCCCCCCCC[n+]1ccn(-c2c(C)cc(C)cc2C)c1.F[B-](F)(F)F [1-mesityl-3-tetradecyl imidazolium tetrafluoroborate] |  | dissolved easily | not dissolved |

Continued, values first:

| Decomposition point [1] [°C] | solubility in tetrahydrofuran ([2]; 80 mg in 2 ml tetrahydrofuran) | solubility in diethylether ([2]; 80 mg in 4 ml diethylether) | Compound |
| --- | --- | --- | --- |
| 440 |  |  | 1-butyl-3-mesitylimidazolium bis(trifluoromethylsulfone)imide [Example 70] |
| 440 |  |  | 1-heptyl-3-mesitylimidazolium bis(trifluoromethylsulfone)imide [Example 73] |
| 440 |  |  | 1-hexyl-3-mesitylimidazolium bis(trifluoromethylsulfone)imide [Example 72] |
| 440 |  |  | 1-mesityl-3-pentylimidazolium bis(trifluoromethylsulfone)imide [Example 71] |
